Active and inactive are the calls of the source. For most assays here, no stated cut-off is given here; in the data, actives have a measured EC50 and inactives only a lower limit.
Experiments:
[1] = tested on: HEK293; experiment: cells; type: functional, cell-based; settings: Homo sapiens
[2] = molecular target: T1, Nuclear receptor subfamily 0 group B member 1 (Homo sapiens, UniProt P51843); experiment: Luminescence-based cell-based high throughput dose response assay for inhibitors of the orphan nuclear receptor subfamily 0, group B, member 1 (DAX1; NR0B1). [Related pubchem assays (depositor defined):AID504766, AID504790]; type: functional
T1 sequence (P51843 whole entry): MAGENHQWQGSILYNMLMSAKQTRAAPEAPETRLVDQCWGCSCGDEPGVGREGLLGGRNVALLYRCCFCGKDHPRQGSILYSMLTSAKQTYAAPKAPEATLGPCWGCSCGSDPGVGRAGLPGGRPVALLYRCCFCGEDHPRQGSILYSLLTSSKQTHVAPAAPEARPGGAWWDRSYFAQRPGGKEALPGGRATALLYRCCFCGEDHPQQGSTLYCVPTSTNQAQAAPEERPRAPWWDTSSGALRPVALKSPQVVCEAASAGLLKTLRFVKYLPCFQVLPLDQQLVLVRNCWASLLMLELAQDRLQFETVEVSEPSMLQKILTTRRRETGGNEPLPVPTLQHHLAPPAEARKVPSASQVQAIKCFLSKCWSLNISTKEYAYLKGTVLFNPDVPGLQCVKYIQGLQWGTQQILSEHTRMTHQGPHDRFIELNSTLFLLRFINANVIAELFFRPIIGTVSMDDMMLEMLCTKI

[3] = molecular target: Beta Lactamase (Pseudomonas aeruginosa, UniProt Q932Y6); experiment: BLA reporter interference, concentration series – BLA reporter cells, FRET fluorescence, artefact control for TLR9-MyD88 binding inhibitor project, dose response (AID 588341); type: cell-based;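 further: cell based assay in CHO-K1 cells stably expressing beta-lactamase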
[4] = molecular target: T2, Corticotropin-releasing factor receptor 2/Corticotropin-releasing factor-binding protein (Homo sapiens, UniProt P24387+Q13324); experiment: activators of CRF receptor 2 with binding protein – uHTS hits, confirmation (AID 602473); type: functional; settings: read-out: EC50_Mean
T2 sequence (Q13324 whole entry): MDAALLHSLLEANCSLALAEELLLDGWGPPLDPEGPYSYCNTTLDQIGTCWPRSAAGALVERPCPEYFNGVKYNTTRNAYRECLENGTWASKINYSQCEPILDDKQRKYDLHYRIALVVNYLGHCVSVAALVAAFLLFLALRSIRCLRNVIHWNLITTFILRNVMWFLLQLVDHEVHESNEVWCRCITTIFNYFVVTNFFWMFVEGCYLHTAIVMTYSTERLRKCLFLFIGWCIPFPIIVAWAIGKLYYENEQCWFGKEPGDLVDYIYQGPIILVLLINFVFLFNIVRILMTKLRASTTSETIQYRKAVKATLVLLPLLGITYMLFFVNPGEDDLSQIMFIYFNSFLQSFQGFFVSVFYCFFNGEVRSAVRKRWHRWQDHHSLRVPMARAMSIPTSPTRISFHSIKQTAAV
T2 sequence (P24387 whole entry): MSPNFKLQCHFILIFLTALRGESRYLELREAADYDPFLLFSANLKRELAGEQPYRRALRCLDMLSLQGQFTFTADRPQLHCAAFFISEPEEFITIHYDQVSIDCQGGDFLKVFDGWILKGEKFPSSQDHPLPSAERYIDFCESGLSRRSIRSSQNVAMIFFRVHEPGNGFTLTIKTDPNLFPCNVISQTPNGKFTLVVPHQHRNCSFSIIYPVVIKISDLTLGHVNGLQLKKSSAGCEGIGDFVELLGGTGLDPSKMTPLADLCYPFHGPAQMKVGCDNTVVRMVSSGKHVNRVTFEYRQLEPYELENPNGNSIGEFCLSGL

[5] = molecular target: T3, Zinc finger protein mex-5 (Caenorhabditis elegans, UniProt Q9XUB2); experiment: potency of MEX-5 RNA-binding blockers – biochemical, C. elegans, fluorescence polarization, dose response (AID 1960)
T3 sequence (Q9XUB2 whole entry): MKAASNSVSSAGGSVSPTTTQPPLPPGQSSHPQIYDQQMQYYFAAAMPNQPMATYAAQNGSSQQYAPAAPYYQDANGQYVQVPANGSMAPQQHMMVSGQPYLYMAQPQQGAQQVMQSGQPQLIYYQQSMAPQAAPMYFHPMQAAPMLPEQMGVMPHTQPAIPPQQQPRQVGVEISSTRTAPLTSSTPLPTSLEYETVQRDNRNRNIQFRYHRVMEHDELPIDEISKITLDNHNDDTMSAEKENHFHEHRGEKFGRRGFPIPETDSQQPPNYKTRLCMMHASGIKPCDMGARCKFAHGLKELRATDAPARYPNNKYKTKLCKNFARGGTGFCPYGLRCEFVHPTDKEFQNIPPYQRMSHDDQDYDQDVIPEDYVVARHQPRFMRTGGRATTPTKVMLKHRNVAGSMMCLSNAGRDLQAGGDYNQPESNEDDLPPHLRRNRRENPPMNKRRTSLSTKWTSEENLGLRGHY

[6] = tested on: CHO; experiment: CHO cell viability loss, potency – luminescence, cytotoxicity control for TLR9-MyD88 binding inhibitor project, dose response (AID 588339); type: functional, cell-based, hamster; settings: Cricetulus griseus;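 further: CHO cells stably coexpressing TLR9 and MyD88 fusions from primary screen; compound exposure lasted 48 hours before viability readout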
[7] = molecular target: T4, RNA-binding protein pos-1 (Caenorhabditis elegans, UniProt G5EF15); experiment: disruptors of C. elegans POS-1 RNA interaction – biochemical, fluorescence polarization, dose response (AID 1964);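 further: purified POS-1 fused to maltose binding protein made in E. coli; potency of compounds blocking POS-1 binding to fluorescent RNA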
T4 sequence (G5EF15 whole entry): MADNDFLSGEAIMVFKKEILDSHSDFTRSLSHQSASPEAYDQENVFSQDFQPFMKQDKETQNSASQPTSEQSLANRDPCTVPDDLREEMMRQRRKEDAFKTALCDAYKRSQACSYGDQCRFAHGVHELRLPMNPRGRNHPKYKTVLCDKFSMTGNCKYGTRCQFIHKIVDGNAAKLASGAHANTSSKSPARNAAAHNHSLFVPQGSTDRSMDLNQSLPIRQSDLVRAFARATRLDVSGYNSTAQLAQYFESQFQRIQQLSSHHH

[8] = molecular target: T5, Type-1 angiotensin II receptor (Homo sapiens, UniProt P30556); experiment: antagonism of angiotensin II type 1 receptor – cell-based, uHTS hits, selectivity assay for APJ receptor antagonist project, dose response (AID 463214); type: functional;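 further: antagonist potency against angiotensin II stimulated AT1 response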
T5 sequence (P30556 whole entry): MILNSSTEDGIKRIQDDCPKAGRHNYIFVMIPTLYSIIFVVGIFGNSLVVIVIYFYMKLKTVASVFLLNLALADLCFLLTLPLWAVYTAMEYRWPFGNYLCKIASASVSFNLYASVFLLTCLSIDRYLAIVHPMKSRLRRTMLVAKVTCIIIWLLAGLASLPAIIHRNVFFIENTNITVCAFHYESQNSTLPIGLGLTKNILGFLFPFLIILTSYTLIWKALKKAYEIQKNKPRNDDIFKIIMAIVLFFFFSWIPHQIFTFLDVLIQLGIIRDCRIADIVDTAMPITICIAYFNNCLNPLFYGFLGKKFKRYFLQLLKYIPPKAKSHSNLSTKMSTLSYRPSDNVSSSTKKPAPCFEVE

[9] = molecular target: Beta-galactosidase (Escherichia coli, UniProt Q8VNN2); experiment: PubChem AID 485352; type: functional
[10] = NIH-3T3 fibroblast cytotoxicity, dose response, cytotoxicity control, cell-based, fluorescence, Alamar Blue, secondary assay (AID 2327); type: functional;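 further: NIH-3T3 mouse fibroblasts cultured with fluconazole at 8 µg/mL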
[11] = tested on: Streptococcus sp. 'group A'; experiment: Streptococcus pyogenes SK(-)GAS viability under kanamycin – luminescence, BacTiterGlo, confirmation, counter-screen for streptokinase expression inhibitor project, dose response (AID 1900); type: functional, organism-based
[12] = tested on: INS1; experiment: INS-1E survival protection against cytokine death – cell-based, luminescence, retest, dose response (AID 449756); type: functional; settings: Rattus norvegicus;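 further: cell death triggered by IL-1 beta plus TNF-alpha plus IFN-gamma mixture; protective hits raise ATP signal compared with cytokine alone wells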
[13] = Trypanosoma cruzi growth suppression in host cells – NIH3T3 host cells, beta-gal luminescence, confirmation (AID 2044); type: functional, cell-based;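 further: intracellular parasites grown in NIH/3T3 mouse fibroblasts as host cells; luminescent beta-galactosidase reporter signal from transgenic T. cruzi replicating inside host cells; inhibitors lower the luminescence signal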
[14] = NIH3T3 cell viability loss – ATP luminescence, mouse fibroblasts, counter-screen, dose response (AID 2010); type: functional, cell-based;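 further: cells exposed to compound for about 90 hours before reading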
[15] = molecular target: Serine/threonine-protein phosphatase (Candida dubliniensis (strain CD36 / CBS 7987 / NCPF 3949 / NRRLY-17841) (Yeast), UniProt B9W6M3); experiment: blockers of CaCl2-induced CDRE-lacZ signaling – S. cerevisiae, luminescence, secondary, dose response (AID 2388); type: functional, cell-based;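 further: yeast reporter cells carrying a calcineurin-responsive lacZ construct stimulated with calcium chloride; luminescent beta-galactosidase reporter signal in whole cells rather than isolated phosphatase activity; potency for inhibition where a drop in reporter signal means calcineurin blockade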
[16] = fluconazole-exposed Candida albicans growth modulators – fluorescence, retest, confirmation (AID 2467); type: functional, cell-based
[17] = molecular target: T6, Streptokinase A (Streptococcus pyogenes serotype M1, UniProt P10520); experiment: viability-normalized secreted streptokinase activity reduction – plasminogen activation absorbance, OD405, dose response (AID 1914); type: functional, Streptococcus pyogenes M1 GAS;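 further: secreted streptokinase activity via plasminogen activation per viability signal from cell pellet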
T6 sequence (P10520 whole entry): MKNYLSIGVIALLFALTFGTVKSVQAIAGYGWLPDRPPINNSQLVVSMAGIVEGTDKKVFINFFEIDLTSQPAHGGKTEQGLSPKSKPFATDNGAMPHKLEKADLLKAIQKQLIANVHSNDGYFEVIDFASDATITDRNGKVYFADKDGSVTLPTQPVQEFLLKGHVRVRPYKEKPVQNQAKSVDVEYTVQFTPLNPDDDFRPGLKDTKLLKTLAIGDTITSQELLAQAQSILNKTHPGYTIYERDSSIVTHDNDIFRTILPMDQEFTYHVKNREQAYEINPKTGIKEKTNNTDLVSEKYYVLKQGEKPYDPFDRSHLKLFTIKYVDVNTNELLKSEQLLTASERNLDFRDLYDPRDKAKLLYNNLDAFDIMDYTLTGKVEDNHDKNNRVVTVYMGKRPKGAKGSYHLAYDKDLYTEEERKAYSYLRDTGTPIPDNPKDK

[18] = tested on: Streptococcus; experiment: GAS UMAA2166 growth inhibition – luminescence, BacTiterGlo, counter-screen for streptokinase expression inhibitor project, dose response (AID 1915); type: functional, organism-based;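 further: potency for reduction of bacterial viability or growth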
[19] = molecular target: ATP-dependent molecular chaperone HSP82 (Candida albicans (strain WO-1) (Yeast), UniProt C4YTQ8); experiment: steroid-induced GRE reporter decrease in yeast – S. cerevisiae, luminescence, Hsp90 inhibitor project, dose response (AID 2400); type: functional, cell-based;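 further: beta-galactosidase luminescence from glucocorticoid response element reporter as proxy for Hsp90 function; inhibitor potency where signal loss means Hsp90 inhibition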
[20] = molecular target: Apoptotic protease-activating factor 1 (Homo sapiens, UniProt O14727); type: functional
[21] = molecular target: T7, Cytochrome P450 1A2 (Homo sapiens, UniProt P05177);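 further: PubChem cytochrome P450 panel assay, CYP1A2 panel member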
T7 sequence (P05177 whole entry): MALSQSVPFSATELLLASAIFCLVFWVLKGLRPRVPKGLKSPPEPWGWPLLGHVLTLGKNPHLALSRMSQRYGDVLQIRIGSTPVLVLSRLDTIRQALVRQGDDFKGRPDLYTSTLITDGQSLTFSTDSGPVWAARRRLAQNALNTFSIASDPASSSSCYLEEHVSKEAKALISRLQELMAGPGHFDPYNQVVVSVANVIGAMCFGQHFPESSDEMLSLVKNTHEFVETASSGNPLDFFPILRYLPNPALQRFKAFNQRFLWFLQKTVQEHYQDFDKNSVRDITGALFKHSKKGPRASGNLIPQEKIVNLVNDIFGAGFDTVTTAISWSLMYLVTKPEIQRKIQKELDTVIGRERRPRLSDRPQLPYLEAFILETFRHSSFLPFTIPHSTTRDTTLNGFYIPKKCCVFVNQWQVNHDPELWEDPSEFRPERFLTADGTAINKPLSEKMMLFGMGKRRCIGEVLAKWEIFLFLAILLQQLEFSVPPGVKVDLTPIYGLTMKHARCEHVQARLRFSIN

[22] = molecular target: Oxysterols receptor LXR-beta (Homo sapiens, UniProt P55055); type: functional, cell-based;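 further: Cell-based luminescence dose-response assay of agonist activity at LXR, run as a confirmatory counterscreen to a daf-12 agonist screen; HEK293 cells with Gal4-LXR fusion and GAL4-driven luciferase reporter; agonist potency from rising luciferase signal of a Gal4-LXR reporter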
[23] = cells

Chain of Beta-galactosidase (Q8VNN2 whole entry): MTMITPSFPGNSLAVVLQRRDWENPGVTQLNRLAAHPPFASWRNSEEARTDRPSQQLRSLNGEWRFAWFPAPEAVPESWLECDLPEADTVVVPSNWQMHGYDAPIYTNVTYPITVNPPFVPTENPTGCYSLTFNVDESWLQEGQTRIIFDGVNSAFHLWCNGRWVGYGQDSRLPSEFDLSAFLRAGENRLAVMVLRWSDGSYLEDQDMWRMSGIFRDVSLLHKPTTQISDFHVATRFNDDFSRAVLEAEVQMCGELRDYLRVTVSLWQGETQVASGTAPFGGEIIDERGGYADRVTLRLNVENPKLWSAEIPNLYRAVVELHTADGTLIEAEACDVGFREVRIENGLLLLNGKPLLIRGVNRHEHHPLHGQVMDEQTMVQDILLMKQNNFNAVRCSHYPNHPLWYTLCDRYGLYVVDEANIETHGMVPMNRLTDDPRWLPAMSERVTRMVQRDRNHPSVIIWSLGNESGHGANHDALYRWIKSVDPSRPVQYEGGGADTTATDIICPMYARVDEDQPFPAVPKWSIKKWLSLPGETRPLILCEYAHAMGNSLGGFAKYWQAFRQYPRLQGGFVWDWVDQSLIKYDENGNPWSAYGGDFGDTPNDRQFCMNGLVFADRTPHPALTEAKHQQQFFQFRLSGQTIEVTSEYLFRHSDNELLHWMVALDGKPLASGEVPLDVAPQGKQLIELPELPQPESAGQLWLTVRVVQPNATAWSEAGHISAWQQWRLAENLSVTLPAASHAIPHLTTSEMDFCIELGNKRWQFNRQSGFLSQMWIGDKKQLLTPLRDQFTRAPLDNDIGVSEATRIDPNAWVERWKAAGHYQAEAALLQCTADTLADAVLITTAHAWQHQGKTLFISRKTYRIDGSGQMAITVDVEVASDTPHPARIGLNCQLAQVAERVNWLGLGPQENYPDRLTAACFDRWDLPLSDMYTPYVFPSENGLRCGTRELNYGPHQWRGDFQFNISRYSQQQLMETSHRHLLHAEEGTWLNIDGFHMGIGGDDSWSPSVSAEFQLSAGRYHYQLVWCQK
Chain of Beta Lactamase (Q932Y6 whole entry): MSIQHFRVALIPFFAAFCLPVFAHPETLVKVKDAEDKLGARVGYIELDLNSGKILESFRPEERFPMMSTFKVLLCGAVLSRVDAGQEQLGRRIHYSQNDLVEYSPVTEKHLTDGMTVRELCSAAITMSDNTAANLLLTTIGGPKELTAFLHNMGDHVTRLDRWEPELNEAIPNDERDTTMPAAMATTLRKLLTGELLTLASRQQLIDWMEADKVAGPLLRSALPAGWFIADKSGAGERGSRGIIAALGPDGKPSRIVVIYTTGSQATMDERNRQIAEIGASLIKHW
Chain of Oxysterols receptor LXR-beta (P55055 whole entry, the tested form may be a part): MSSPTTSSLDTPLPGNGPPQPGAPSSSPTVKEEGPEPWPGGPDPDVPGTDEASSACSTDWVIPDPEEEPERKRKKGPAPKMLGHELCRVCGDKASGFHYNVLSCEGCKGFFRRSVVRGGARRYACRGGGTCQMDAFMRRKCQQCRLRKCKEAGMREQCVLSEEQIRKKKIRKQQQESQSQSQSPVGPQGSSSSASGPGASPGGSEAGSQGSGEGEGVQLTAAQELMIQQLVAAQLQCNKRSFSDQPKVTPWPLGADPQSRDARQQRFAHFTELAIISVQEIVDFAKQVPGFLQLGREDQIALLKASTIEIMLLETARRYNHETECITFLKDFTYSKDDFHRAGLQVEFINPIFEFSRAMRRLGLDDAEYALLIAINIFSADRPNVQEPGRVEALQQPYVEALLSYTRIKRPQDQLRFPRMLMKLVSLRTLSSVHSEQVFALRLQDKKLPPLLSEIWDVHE
Chain of ATP-dependent molecular chaperone HSP82 (C4YTQ8 whole entry): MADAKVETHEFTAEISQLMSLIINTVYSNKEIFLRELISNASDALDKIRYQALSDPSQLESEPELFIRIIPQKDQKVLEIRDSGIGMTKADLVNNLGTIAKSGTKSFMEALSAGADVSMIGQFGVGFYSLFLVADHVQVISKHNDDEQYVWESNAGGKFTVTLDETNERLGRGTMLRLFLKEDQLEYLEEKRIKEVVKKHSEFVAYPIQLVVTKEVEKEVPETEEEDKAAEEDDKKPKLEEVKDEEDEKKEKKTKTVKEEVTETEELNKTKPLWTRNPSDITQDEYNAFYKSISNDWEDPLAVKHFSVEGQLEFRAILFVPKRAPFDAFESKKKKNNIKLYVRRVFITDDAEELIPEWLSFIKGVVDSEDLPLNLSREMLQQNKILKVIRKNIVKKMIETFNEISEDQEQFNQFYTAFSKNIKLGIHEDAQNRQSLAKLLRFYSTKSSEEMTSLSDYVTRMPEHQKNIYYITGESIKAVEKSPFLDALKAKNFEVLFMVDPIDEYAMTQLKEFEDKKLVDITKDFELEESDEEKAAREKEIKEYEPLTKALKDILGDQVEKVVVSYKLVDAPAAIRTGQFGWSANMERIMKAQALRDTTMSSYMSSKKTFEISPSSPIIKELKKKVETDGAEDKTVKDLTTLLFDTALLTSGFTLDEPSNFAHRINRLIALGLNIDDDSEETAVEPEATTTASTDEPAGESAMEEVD
Chain of Apoptotic protease-activating factor 1 (O14727 whole entry): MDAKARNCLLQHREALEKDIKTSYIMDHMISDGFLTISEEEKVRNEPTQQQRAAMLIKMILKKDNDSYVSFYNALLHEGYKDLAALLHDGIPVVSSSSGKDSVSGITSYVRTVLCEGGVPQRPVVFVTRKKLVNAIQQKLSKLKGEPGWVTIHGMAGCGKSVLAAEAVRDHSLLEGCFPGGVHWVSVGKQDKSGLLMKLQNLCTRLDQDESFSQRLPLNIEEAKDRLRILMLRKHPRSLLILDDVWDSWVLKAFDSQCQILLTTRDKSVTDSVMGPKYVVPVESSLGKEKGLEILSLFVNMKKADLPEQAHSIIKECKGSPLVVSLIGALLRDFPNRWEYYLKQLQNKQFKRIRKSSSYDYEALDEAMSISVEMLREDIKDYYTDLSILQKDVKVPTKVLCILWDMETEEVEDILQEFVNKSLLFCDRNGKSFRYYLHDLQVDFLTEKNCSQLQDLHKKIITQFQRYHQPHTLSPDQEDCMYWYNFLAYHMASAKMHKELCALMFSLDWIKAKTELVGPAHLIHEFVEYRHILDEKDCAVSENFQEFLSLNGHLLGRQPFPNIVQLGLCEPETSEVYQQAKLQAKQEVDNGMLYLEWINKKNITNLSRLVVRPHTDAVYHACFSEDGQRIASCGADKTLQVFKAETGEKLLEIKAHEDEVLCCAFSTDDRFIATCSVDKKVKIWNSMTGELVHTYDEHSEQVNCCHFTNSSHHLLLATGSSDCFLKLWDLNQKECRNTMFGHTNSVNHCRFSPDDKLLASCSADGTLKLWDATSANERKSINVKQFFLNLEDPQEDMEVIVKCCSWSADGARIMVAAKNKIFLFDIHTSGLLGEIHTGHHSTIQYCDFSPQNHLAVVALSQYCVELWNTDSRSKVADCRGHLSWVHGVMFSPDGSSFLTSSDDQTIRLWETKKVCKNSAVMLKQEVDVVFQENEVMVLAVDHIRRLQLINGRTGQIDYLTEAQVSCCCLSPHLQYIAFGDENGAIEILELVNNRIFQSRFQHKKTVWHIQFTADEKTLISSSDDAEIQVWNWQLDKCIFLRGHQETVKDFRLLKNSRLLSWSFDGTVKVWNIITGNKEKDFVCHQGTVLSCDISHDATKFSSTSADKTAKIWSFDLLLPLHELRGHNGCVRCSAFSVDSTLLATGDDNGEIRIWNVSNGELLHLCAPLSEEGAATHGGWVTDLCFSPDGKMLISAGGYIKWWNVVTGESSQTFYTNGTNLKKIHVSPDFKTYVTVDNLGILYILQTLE
Chain of Serine/threonine-protein phosphatase (B9W6M3 whole entry): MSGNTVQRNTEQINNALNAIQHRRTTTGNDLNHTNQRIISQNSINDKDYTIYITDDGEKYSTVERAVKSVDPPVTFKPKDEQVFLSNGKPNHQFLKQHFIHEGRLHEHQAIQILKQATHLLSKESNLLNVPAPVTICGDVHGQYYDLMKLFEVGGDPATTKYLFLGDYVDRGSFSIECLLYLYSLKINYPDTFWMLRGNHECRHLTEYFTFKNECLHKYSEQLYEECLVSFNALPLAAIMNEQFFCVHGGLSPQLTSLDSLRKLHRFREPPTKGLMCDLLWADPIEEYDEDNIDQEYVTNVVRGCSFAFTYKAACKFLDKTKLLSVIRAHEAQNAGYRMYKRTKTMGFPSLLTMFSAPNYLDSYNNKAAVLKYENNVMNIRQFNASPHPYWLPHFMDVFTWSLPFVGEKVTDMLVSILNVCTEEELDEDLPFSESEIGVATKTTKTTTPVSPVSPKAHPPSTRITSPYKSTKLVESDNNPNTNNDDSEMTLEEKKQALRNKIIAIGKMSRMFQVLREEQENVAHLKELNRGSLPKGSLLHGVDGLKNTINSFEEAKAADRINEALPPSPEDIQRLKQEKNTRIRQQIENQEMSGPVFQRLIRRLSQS

With `Cc1nc2c(ncn2-c2ccccc2)c(=O)n1NC(=O)CN1CCCC1` the IC50 [1] was > 67.5 µM (inactive) and the IC50 [2] was > 67.5 µM (inactive).
With `COc1ccc(C(=O)c2sc3nc(C)cc(-c4cccs4)c3c2N)cc1OC` the IC50 [3] was 8.85 µM (active), the EC50 [4] was 8.12 µM (active) and the EC50 [5] was 22.6 µM (active). The IC50 [6] was 50.2 µM (inactive) and the EC50 [7] was 21.2 µM (active).
With `COC(=O)c1ccc(NCC(=O)c2ccccc2)cc1` the IC50 [8] was 13.7 µM (active) and the EC50 [9] was > 40 µM (inactive).
In the case of `Nc1nonc1-n1nnc(C(=O)N/N=C/c2cc(Br)ccc2O)c1CNc1ccccc1`, the EC50 [10] was 43.8 µM (inconclusive), the EC50 [11] was 0.392 µM (active) and the AC50 [12] was 2.52 µM (active). The EC50 [13] was 1.84 µM (active), the EC50 [14] was 5.03 µM (active) and the EC50 [15] was > 180 µM (inactive). For the same compound, the EC50 [16] was 0.178 µM (active), the EC50 [17] was > 150 µM (not active) and the EC50 [18] was 3.23 µM (active). The EC50 [19] was 22.6 µM (active).
With `O=C(O)c1cccc(NC2=C(N3CCOCC3)C(=O)c3ccccc3C2=O)c1` the IC50 [20] was 14.8 µM (active).
For `Cc1ccc(C(=O)COC(=O)CNC(=O)Cc2ccccc2)cc1[N+](=O)[O-]`, the AC50 [21] was 25.1 µM (inconclusive), the IC50 [8] was > 40 µM (not active) and the EC50 [9] was > 40 µM (inactive).
For `Oc1ccccc1-c1cc(-c2ccc(F)cc2)[nH]n1`, the EC50 [22] was > 67.6 µM (inactive), the IC50 [1] was > 67.5 µM (inactive) and the IC50 [2] was > 67.5 µM (inactive). The EC50 [23] was > 67.6 µM (inactive).

Reference: ChEMBL document CHEMBL1201862, “PubChem BioAssay data set” (2004)
